Entries after “also recorded” stand apart in the source; their conditions may differ.
Assays:
CaV3.3 = molecular target: T1, CaV3.3 (Homo sapiens, UniProt Q9P0X4); experiment: Measurement of intracellular calcium, CaV3.3; format: cell-based; conditions: 10 μM; HEK293 cells expressing human CaV3.3
T1 construct: expressed in transfected cells; host or cells: Flp-In T-REx HEK (tetracycline-induced)
Procedure: (§1) Changes in intracellular calcium concentrations were measured in Flp-In™ T-REx™ HEK stably expressing either CaV3.1, CaV3.2, or CaV3.3 using Calcium 5 dye (Molecular Devices; Sunnyvale, USA) as previously described (Bladen et al. [2021]). Briefly, cells (120,000/well) were plated into a black, clear-bottomed poly-D-lysine coated, 96-well plate in the presence of 2 μg/mL tetracycline to induce channel expression and incubated overnight at 37°C in ambient CO2. Calcium 5 dye was diluted in HEPES-buffered low potassium Hanks Balanced Salt Solution (HBSS) at 50% of manufacturer’s recommendation. Dye solution containing probenecid (2.5 mM) was added and incubated for 60 min at 37°C in ambient CO2. Compounds were prepared as stock solutions in DMSO and diluted in HBSS with 0.01% bovine serum albumin. Compounds were applied for 5 min, then 10 mM CaCl2 was added. A FlexStation 3 Microplate reader (Molecular Devices; San Jose, USA) was used to take fluorescence readings every 2 s (excitation 485 nm, emission 525 nm). Baseline recordings were taken as the average fluorescence over 20 s preceding CaCl2 addition. Changes in fluorescence were measured as the maximal increase in fluorescence from baseline following CaCl2 addition and normalized to the response of vehicle. CaCl2 addition produced no effect in non-induced cells (Supplemental Fig. 2). Final drug concentrations had ≤ 0.1% DMSO. […]

[1] = tested on: hyperthermia-induced seizures in Scn1a^+/- mice; experiment: Hyperthermia-induced seizures in Scn1a+/- mouse model of Dravet syndrome; format: in vivo
Procedure: Hyperthermia-induced seizure experiments were conducted on male and female Scn1a^+/- mice at P14-16 as previously described (Hawkins et al. [2017]). No significant sex differences were observed so males and females were combined across groups. Briefly, for CBGA methyl ester experimental animals a RET-3 rectal temperature probe was inserted 30 min after i.p. injections of vehicle or CBGA methyl ester. Mice acclimated to the probe for 5 min before hyperthermia protocol began. Olivetolic acid experimental animals acclimated to the rectal temperature probe for 5 min then received an i.p. injection of vehicle or olivetolic acid immediately before the hyperthermia protocol was initiated. Mouse core body temperature was elevated 0.5°C every 2 min until the onset of first clonic convulsion with loss of posture or until 42.5°C was reached. The dose range (10, 30, or 100 mg/kg) was chosen to provide a point of direct comparison to CBGA, which is anticonvulsant at 30 and 100 mg/kg. Seizure threshold temperatures were compared in GraphPad Prism 8.2 (LaJolla, USA) using Mantel-Cox logrank test and p < 0.05 was considered statistically significant. Following the hyperthermia-induced seizure protocol, the plasma samples were isolated as described for the pharmacokinetic analysis from a cohort of experimental mice.

CaV3.2 = molecular target: T2, CaV3.2 (Homo sapiens, UniProt O95180); experiment: Measurement of intracellular calcium, CaV3.2; format: cell-based; conditions: 10 μM; HEK293 cells expressing human CaV3.2
T2 construct: expressed in transfected cells; host or cells: Flp-In T-REx HEK (tetracycline-induced)
Procedure: as §1, with “vehicle.” for “vehicle. CaCl2 addition produced no effect in non-induced cells (Supplemental Fig. 2). Final drug concentrations had ≤ 0.1% DMSO.”

CaV3.1 = molecular target: T3, CaV3.1 (Homo sapiens, UniProt O43497); experiment: Measurement of intracellular calcium, CaV3.1; format: cell-based; conditions: 10 μM; HEK293 cells expressing human CaV3.1
T3 construct: expressed in transfected cells; host or cells: Flp-In T-REx HEK (tetracycline-induced)
T3 sequence (O43497 whole entry): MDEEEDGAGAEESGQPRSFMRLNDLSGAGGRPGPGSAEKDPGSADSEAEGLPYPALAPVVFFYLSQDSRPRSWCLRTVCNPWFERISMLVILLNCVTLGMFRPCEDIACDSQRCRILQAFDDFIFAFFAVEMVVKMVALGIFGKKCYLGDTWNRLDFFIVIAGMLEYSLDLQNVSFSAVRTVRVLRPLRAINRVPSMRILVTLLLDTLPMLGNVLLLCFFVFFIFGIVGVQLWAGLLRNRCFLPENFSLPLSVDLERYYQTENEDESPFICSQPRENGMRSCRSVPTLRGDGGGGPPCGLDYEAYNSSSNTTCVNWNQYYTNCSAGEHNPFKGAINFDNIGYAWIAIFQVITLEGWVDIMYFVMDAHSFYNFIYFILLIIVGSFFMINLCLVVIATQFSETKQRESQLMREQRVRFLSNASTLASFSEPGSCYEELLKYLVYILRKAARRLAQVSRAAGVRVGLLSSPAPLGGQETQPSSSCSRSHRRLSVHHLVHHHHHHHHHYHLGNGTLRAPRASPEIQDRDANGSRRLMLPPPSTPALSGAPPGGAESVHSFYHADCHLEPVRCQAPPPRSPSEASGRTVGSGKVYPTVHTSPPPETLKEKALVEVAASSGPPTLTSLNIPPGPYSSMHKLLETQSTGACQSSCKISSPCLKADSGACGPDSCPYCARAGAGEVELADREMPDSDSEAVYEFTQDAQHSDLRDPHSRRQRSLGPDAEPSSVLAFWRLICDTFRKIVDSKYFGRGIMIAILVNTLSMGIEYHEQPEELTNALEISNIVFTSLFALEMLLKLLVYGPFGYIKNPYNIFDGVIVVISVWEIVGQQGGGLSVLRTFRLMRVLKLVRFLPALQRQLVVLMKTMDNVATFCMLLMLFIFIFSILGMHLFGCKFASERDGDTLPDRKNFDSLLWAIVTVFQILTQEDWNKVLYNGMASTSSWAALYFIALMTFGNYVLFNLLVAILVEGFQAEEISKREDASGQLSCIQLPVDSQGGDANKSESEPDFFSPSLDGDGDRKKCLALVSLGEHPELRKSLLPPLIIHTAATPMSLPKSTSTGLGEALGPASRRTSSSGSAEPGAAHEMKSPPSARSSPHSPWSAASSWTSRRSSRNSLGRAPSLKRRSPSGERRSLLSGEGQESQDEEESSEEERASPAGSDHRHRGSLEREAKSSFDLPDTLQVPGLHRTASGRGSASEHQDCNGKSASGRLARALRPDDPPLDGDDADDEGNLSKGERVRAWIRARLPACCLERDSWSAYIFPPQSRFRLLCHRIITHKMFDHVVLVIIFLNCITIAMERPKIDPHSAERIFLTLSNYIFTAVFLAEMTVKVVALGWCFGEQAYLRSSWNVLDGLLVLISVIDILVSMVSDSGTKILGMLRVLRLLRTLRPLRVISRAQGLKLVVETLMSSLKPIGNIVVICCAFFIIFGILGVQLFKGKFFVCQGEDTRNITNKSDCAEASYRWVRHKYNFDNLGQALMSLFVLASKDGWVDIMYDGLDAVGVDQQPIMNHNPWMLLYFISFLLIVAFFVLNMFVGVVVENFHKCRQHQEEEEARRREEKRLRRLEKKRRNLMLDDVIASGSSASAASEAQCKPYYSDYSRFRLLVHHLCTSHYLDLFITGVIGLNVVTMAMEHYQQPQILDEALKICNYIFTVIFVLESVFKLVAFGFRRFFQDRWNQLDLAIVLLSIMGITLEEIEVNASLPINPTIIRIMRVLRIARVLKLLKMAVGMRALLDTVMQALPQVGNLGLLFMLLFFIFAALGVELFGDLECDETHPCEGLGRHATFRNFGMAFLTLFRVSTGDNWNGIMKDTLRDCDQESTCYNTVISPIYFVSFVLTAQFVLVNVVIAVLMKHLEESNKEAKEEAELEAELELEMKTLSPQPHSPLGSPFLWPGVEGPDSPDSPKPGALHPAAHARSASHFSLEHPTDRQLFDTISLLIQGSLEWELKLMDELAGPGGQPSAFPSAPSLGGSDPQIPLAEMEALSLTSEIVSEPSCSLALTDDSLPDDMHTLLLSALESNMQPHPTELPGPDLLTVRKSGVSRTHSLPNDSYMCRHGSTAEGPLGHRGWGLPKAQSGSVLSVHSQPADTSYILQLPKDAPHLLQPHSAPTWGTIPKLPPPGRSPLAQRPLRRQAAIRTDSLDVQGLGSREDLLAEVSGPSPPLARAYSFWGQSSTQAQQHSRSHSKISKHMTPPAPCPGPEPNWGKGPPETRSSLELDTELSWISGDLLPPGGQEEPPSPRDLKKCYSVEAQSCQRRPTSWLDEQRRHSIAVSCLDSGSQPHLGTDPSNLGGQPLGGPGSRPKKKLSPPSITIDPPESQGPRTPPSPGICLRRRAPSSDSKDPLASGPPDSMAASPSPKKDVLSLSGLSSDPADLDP
Procedure: as §1

human GPR55 = molecular target: T4, human GPR55 (Homo sapiens, UniProt Q9Y2T6); experiment: GPR55 pERK assay (AlphaScreen SureFire Phospho-ERK1/2); format: cell-based; conditions: 10 μM; LPI at EC80; HEK293 cells expressing human GPR55
T4 construct: expressed in transfected cells; host or cells: HEK293
T4 sequence (Q9Y2T6 whole entry): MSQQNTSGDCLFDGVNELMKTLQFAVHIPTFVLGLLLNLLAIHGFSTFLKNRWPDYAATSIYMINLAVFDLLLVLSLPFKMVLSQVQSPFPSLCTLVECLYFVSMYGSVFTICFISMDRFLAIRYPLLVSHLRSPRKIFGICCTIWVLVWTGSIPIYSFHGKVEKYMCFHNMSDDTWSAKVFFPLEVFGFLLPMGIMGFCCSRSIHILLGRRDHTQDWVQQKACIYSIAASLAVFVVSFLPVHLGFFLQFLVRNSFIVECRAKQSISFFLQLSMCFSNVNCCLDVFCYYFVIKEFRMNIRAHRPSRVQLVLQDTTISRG
Procedure: ERK phosphorylation (pERK) was detected using the AlphaScreen® SureFire® Phospho-ERK1/2 assay (Perkin Elmer; Waltham, USA) as previously described (Anderson et al. [2021b]). Briefly, the human embryonic kidney (HEK) 293 cells stably expressing human GPR55 in L-15 media were plated (110,000/well) into a Corning CellBIND (Corning Inc; Corning, USA) clear, flat-bottomed 96-well plate and incubated 20–24 h at 37°C in ambient CO2. Media was aspirated, 50 μL phenol red-free DMEM/F-12 was added to each well and incubated for 2–3 h at 37°C in a humidified 5% CO2 atmosphere. Compounds (10 μM in phenol red-free DMEM/F-12) were added and incubated for 20 min before media was aspirated and lysis buffer was added. Lysates (5 μL) were incubated with reaction mixture (7 μL) for 3.5 h at room temperature. A CLARIOstar plate reader (BMG Labtech; Offenburg, GER) was used to take fluorescence readings over 740 msec (excitation 680 nm, emission 520–620 nm). Fluorescence readings were normalized to those of 4 μM LPI, the endogenous GPR55 agonist. […] Final DMSO concentrations were ≤ 0.2%. Statistical comparisons were made in GraphPad Prism using one-way ANOVA followed by Dunnett’s post hoc and p < 0.05 was considered statistically significant.

T1 sequence (Q9P0X4 whole entry): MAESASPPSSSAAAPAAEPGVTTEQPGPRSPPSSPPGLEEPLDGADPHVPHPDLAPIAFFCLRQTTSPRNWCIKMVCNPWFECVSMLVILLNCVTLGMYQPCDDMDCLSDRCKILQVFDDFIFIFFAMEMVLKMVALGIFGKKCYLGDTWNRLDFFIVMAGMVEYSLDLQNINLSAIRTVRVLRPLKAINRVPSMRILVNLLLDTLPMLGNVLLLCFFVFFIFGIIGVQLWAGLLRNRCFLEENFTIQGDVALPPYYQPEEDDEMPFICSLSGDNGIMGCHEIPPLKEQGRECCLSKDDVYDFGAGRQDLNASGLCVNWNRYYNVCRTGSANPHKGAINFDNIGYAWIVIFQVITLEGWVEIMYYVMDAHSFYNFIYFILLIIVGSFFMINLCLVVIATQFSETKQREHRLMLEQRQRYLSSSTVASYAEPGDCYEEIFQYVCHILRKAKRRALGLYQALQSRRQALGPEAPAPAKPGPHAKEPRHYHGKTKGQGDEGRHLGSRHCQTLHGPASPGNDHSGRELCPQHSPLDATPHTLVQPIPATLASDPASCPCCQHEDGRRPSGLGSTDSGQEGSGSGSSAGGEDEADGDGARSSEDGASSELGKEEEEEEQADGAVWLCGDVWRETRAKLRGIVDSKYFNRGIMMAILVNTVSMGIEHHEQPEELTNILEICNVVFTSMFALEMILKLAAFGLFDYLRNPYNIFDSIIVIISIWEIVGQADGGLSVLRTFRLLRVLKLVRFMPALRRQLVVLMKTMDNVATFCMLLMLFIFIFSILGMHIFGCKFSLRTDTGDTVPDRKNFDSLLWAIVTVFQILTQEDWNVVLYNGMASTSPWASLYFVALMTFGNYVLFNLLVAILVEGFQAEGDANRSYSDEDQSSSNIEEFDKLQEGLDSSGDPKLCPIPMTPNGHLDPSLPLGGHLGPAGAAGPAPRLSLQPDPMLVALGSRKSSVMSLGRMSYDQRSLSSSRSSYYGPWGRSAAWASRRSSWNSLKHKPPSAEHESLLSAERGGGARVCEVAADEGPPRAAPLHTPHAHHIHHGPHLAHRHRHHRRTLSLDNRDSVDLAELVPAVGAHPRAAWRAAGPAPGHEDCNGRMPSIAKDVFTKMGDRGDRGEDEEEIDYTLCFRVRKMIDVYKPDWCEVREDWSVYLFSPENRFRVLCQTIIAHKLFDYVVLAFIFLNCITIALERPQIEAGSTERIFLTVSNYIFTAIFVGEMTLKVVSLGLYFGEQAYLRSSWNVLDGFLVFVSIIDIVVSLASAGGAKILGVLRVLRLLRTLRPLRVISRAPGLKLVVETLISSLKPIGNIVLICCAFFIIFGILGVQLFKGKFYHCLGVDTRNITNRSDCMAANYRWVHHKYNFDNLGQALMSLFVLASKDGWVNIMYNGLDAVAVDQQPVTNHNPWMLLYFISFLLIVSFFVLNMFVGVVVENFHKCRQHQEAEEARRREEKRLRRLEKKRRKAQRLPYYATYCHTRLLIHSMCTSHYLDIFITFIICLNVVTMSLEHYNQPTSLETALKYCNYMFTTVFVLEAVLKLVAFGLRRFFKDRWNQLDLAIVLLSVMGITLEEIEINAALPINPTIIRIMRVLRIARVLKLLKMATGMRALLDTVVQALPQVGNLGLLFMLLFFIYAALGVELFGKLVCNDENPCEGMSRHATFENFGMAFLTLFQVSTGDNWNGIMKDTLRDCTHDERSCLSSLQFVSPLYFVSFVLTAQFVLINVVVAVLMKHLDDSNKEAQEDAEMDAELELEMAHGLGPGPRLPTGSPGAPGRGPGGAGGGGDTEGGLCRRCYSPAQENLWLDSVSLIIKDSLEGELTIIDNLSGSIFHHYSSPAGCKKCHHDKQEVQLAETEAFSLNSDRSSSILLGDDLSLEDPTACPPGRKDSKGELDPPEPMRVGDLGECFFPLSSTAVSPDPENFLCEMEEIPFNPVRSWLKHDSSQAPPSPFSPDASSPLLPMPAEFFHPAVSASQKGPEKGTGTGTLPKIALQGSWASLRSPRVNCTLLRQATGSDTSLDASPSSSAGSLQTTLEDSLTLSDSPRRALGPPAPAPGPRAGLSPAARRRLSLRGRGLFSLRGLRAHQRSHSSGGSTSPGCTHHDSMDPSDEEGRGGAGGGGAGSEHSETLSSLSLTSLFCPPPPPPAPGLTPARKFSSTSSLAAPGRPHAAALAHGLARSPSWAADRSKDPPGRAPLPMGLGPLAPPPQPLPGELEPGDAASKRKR

Compound	inhibition of CaV3.3 (change in intracellular calcium relative to vehicle) (CaV3.3)	effect on hyperthermia-induced seizures ([1]; any dose tested (10, 30, 100 mg/kg i.p.), Scn1a+/- mice P14-16)	inhibition of CaV3.2 (change in intracellular calcium relative to vehicle) (CaV3.2)	inhibition of CaV3.1 (change in intracellular calcium relative to vehicle) (CaV3.1)	inhibition of GPR55 activity (pERK relative to agonist LPI alone) (human GPR55)	increase of GTCS temperature threshold ([1]; 100 mg/kg i.p., Scn1a+/- mice)	anticonvulsant effect (GTCS temperature threshold) ([1]; 100 mg/kg i.p., Scn1a+/- mice P14-16)
CCCCCc1cc(O)c(C/C=C(\C)CCC=C(C)C)c(O)c1C(=O)OC [CBGA methyl ester]	Neither CBGA methyl ester nor olivetolic acid had any effect; also recorded: no effect	no effect; also recorded: ineffective	Neither CBGA methyl ester nor olivetolic acid had any effect; also recorded: no effect	Neither CBGA methyl ester nor olivetolic acid had any effect; also recorded: no effect	did not inhibit; also recorded: no effect	–	–
CCCCCc1cc(O)cc(O)c1C(=O)O [Olivetolic acid]	Neither CBGA methyl ester nor olivetolic acid had any effect; also recorded: ineffective	–	Neither CBGA methyl ester nor olivetolic acid had any effect; also recorded: ineffective	Neither CBGA methyl ester nor olivetolic acid had any effect; also recorded: ineffective	did not inhibit; also recorded: ineffective	approximately 0.4 °C	modest but significant anticonvulsant effect; also recorded: significantly increased the temperature threshold for GTCS

Reference: PMC8725448 (Journal of Cannabis Research, 2022)
